Measurements reported in patent US20250129070A1, “BIFUNCTIONAL ANDROGEN RECEPTOR COMPOUNDS” (priority 2023, published 2025).

Experiments:
Assay type in all cases: cell-based
AR / CBP ternary complex = test: Ternary complex formation assay (sandwich ELISA, AR capture / CBP detection) in VCaP cell lysates; settings: 1.5 hours treatment, sandwich ELISA (AR capture, CBP or p300 detection)
Summary of the method: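 Anti-AR (AR 441)-coated plates capture AR from lysates of VCaP cells grown ≥3 days at 50K/well in 5% charcoal-stripped FBS, dosed with bifunctional for 1.5 h and lysed 30 min at 4 °C. Co-captured CBP/p300 is probed with rabbit mAb and HRP anti-rabbit, then QuantaRed fluorescence (570/585) is read at 0, 5 and 15 min.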

VCaP cells = test: VCaP growth inhibition assay; settings: 30 pM R1881, 9 days, CTG
Summary of the method: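 Growth read by CTG luminescence after 9-day exposure to compound (final 100 nM–10 fM, 1:5 steps) plus 30 pM R1881, in phenol red-free DMEM with 5% CSS. Cells pre-incubated 72 h before dosing; IC50 by nonlinear 4-parameter regression.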

HEK-293 cells = test: HEK-293 growth inhibition assay; settings: 3 days, CTG
Procedure: Cluster plates are returned to the incubator (37*C/5% CO2) for 24 hours prior to treatment. […] Cluster plates are returned to the incubator for 3 days.
After the 3-day treatment period, 100 uL media was removed from each well by aspiration and 100 uL room temperature CTG reagent (Promega Cat #G7573) is added back to each well. The cluster plates are placed on a shaker and incubated at room temperature for 20 minutes. Following this shaking/incubation, cluster plates are read on a luminometer (BMG ClarioStar). IC50 values are obtained by graphing the RLU data vs. compound concentration with nonlinear regression 4-parameter logistic curves (GraphPad Prism).

Row | EC50 (AR / CBP ternary complex) | IC50 (VCaP cells) | SMILES | IC50 (HEK-293 cells)
1 | < 1 nM | 0.1 to 1 nM | CNC(=O)N1CCc2c(c(N3CCCc4cc(-c5cnn(C)c5)c(C(F)F)cc43)nn2C2CCN(CCOc3ncc(C(=O)NC4C(C)(C)C(Oc5ccc(C#N)c(Cl)c5)C4(C)C)cn3)CC2)C1 (stereo not drawn) [Compound 87, 1-[1-[2-[5-[[3-(3-chloro-4-cyano-phenoxy)-2,2,4,4-tetramethyl-cyclobutyl]carbamoyl]pyrimidin-2-yl]oxyethyl]-4-piperidyl]-3-[7-(difluoromethyl)-6-(1-methylpyrazol-4-yl)-3,4-dihydro-2H-quinolin-1-yl]-N-methyl-6,7-dihydro-4H-pyrazolo[4,3-c]pyridine-5-carboxamide] | > 10000 nM
2 | < 1 nM | ≤ 0.1 nM | CNC(=O)N1CCc2c(c(N3CCCc4cc(-c5cnn(C)c5)c(C(F)F)cc43)nn2C2CCN(C(=O)COCC3CCN(c4ncc(C(=O)NC5C(C)(C)C(Oc6ccc(C#N)c(Cl)c6)C5(C)C)cn4)CC3)CC2)C1 (stereo not drawn) [Compound 107, 1-[1-[2-[[1-[5-[[3-(3-chloro-4-cyano-phenoxy)-2,2,4,4-tetramethyl-cyclobutyl]carbamoyl]pyrimidin-2-yl]-4-piperidyl]methoxy]acetyl]-4-piperidyl]-3-[7-(difluoromethyl)-6-(1-methylpyrazol-4-yl)-3,4-dihydro-2H-quinolin-1-yl]-N-methyl-6,7-dihydro-4H-pyrazolo[4,3-c] pyridine-5-carboxamide] | > 10000 nM
3 | > 100 nM | > 100 nM | C[C@@H]1CC(=O)Nc2cccc(-c3ccc4c(c3)c(C3CC3)nn4CCCN3CCN(c4ncc(C(=O)NC5C(C)(C)C(Oc6ccc(C#N)c(Cl)c6)C5(C)C)cn4)CC3)c2N1 (stereo partly drawn) [Compound 59, N-[3-(3-chloro-4-cyano-phenoxy)-2,2,4,4-tetramethyl-cyclobutyl]-2-[4-[3-[3-cyclopropyl-5-[(4R)-4-methyl-2-oxo-1,3,4,5-tetrahydro-1,5-benzodiazepin-6-yl]indazol-1-yl]propyl]piperazin-1-yl]pyrimidine-5-carboxamide] | > 10000 nM
4 | < 1 nM | ≤ 0.1 nM | COc1cc(OC2C(C)(C)C(NC(=O)c3ccc(N4CC5(CCC(N6CCC(n7nc(N8CCCc9cc(-c%10cnn(C)c%10)c(C(F)F)cc98)c8c7CCN(C(C)=O)C8)CC6)CC5)C4)cc3)C2(C)C)ccc1C#N (stereo not drawn) [Compound 273, 4-[7-[4-[5-acetyl-3-[7-(difluoromethyl)-6-(1-methylpyrazol-4-yl)-3,4-dihydro-2H-quinolin-1-yl]-6,7-dihydro-4H-pyrazolo[4,3-c]pyridin-1-yl]-1-piperidyl]-2-azaspiro[3.5]nonan-2-yl]-N-[3-(4-cyano-3-methoxy-phenoxy)-2,2,4,4-tetramethyl-cyclobutyl]benzamide] | > 1000 nM
5 | < 1 nM | 0.1 to 1 nM | CC(=O)N1CCc2c(c(-c3cccc4cc(-c5ccc(C(=O)NCCCc6ncc(C(=O)NC7C(C)(C)C(Oc8ccc(C#N)c(Cl)c8)C7(C)C)cn6)nc5)ncc34)nn2C2CCOCC2)C1 (stereo not drawn) [Compound 77, 2-[3-[[5-[8-(5-acetyl-1-tetrahydropyran-4-yl-6,7-dihydro-4H-pyrazolo[4,3-c]pyridin-3-yl)-3-isoquinolyl]pyridine-2-carbonyl]amino]propyl]-N-[3-(3-chloro-4-cyano-phenoxy)-2,2,4,4-tetramethyl-cyclobutyl]pyrimidine-5-carboxamide] | > 10000 nM
6 | < 1 nM | 0.1 to 1 nM | CC(=O)N1CCc2c(c(N3CCCc4cc(-c5cnn(C)c5)c(C(F)F)cc43)nn2C2CCN(C(=O)COC3CCN(c4ncc(C(=O)NC5C(C)(C)C(Oc6ccc(C#N)c(Cl)c6)C5(C)C)cn4)CC3)CC2)C1 (stereo not drawn) [Compound 69, 2-[4-[2-[4-[5-acetyl-3-[7-(difluoromethyl)-6-(1-methylpyrazol-4-yl)-3,4-dihydro-2H-quinolin-1-yl]-6,7-dihydro-4H-pyrazolo[4,3-c]pyridin-1-yl]-1-piperidyl]-2-oxo-ethoxy]-1-piperidyl]-N-[3-(3-chloro-4-cyano-phenoxy)-2,2,4,4-tetramethyl-cyclobutyl]pyrimidine-5-carboxamide] | > 10000 nM
7 | < 1 nM | 0.1 to 1 nM | CC(=O)N1CCc2c(c(N3CCCc4cc(-c5cnn(C)c5)c(C(F)F)cc43)nn2C2CCN(C3CCN(c4ncc(C(=O)NC5C(C)(C)C(Oc6ccc(C#N)c(Cl)c6)C5(C)C)cn4)CC3)CC2)C1 (stereo not drawn) [Compound 85, 2-[4-[4-[5-acetyl-3-[7-(difluoromethyl)-6-(1-methylpyrazol-4-yl)-3,4-dihydro-2H-quinolin-1-yl]-6,7-dihydro-4H-pyrazolo[4,3-c]pyridin-1-yl]-1-piperidyl]-1-piperidyl]-N-[3-(3-chloro-4-cyano-phenoxy)-2,2,4,4-tetramethyl-cyclobutyl]pyrimidine-5-carboxamide] | > 10000 nM
8 | < 1 nM | 0.1 to 1 nM | CC(=O)N1CCc2c(c(N3CCCc4cc(-c5cnn(C)c5)c(C(F)F)cc43)nn2C2CCN(C(=O)CN3CCN(c4ncc(C(=O)NC5C(C)(C)C(Oc6ccc(C#N)c(Cl)c6)C5(C)C)cn4)CC3)C2)C1 (stereo not drawn) [Compound 64, 2-[4-[2-[3-[5-acetyl-3-[7-(difluoromethyl)-6-(1-methylpyrazol-4-yl)-3,4-dihydro-2H-quinolin-1-yl]-6,7-dihydro-4H-pyrazolo[4,3-c]pyridin-1-yl]pyrrolidin-1-yl]-2-oxo-ethyl]piperazin-1-yl]-N-[3-(3-chloro-4-cyano-phenoxy)-2,2,4,4-tetramethyl-cyclobutyl]pyrimidine-5-carboxamide] | > 10000 nM

Row | SMILES | EC50 (AR / CBP ternary complex) | IC50 (VCaP cells) | IC50 (HEK-293 cells)
9 | CNC(=O)N1CCc2c(c(N3CCCc4cc(-c5cnn(C)c5)c(C(F)F)cc43)nn2C2CCN(C(=O)COCCCN3CCN(c4ncc(C(=O)NC5C(C)(C)C(Oc6ccc(C#N)c(Cl)c6)C5(C)C)cn4)CC3)CC2)C1 (stereo not drawn) [Compound 105, 1-[1-[2-[3-[4-[5-[[3-(3-chloro-4-cyano-phenoxy)-2,2,4,4-tetramethyl-cyclobutyl]carbamoyl]pyrimidin-2-yl]piperazin-1-yl]propoxy]acetyl]-4-piperidyl]-3-[7-(difluoromethyl)-6-(1-methylpyrazol-4-yl)-3,4-dihydro-2H-quinolin-1-yl]-N-methyl-6,7-dihydro-4H-pyrazolo[4,3-c]pyridine-5-carboxamide] | < 1 nM | 0.1 to 1 nM | > 10000 nM
10 | CNC(=O)N1CCc2c(c(N3CCCc4cc(-c5cnn(C)c5)c(C(F)F)cc43)nn2C2CCN(CC3CCN(c4ncc(C(=O)NC5C(C)(C)C(Oc6ccc(C#N)c(Cl)c6)C5(C)C)cn4)CC3)CC2)C1 (stereo not drawn) [Compound 82, 1-[1-[[1-[5-[[3-(3-chloro-4-cyano-phenoxy)-2,2,4,4-tetramethyl-cyclobutyl]carbamoyl]pyrimidin-2-yl]-4-piperidyl]methyl]-4-piperidyl]-3-[7-(difluoromethyl)-6-(1-methylpyrazol-4-yl)-3,4-dihydro-2H-quinolin-1-yl]-N-methyl-6,7-dihydro-4H-pyrazolo[4,3-c]pyridine-5-carboxamide] | < 1 nM | ≤ 0.1 nM | > 10000 nM
11 | CNC(=O)N1CCc2c(c(N3CCCc4cc(-c5cnn(C)c5)c(C(F)F)cc43)nn2C2CCN(C(=O)COCCCOCC3CCN(c4ncc(C(=O)NC5C(C)(C)C(Oc6ccc(C#N)c(Cl)c6)C5(C)C)cn4)CC3)CC2)C1 (stereo not drawn) [Compound 97, 1-[1-[2-[3-[[1-[5-[[3-(3-chloro-4-cyano-phenoxy)-2,2,4,4-tetramethyl-cyclobutyl]carbamoyl]pyrimidin-2-yl]-4-piperidyl]methoxy]propoxy]acetyl]-4-piperidyl]-3-[7-(difluoromethyl)-6-(1-methylpyrazol-4-yl)-3,4-dihydro-2H-quinolin-1-yl]-N-methyl-6,7-dihydro-4H-pyrazolo[4,3-c]pyridine-5-carboxamide] | < 1 nM | ≤ 0.1 nM | > 10000 nM
12 | CNC(=O)N1CCc2c(c(N3CCCc4cc(-c5cnn(C)c5)c(C(F)F)cc43)nn2C2CCN(C(=O)COCCC3CCN(c4ncc(C(=O)NC5C(C)(C)C(Oc6ccc(C#N)c(Cl)c6)C5(C)C)cn4)CC3)CC2)C1 (stereo not drawn) [Compound 99, 1-[1-[2-[2-[1-[5-[[3-(3-chloro-4-cyano-phenoxy)-2,2,4,4-tetramethyl-cyclobutyl]carbamoyl]pyrimidin-2-yl]-4-piperidyl]ethoxy]acetyl]-4-piperidyl]-3-[7-(difluoromethyl)-6-(1-methylpyrazol-4-yl)-3,4-dihydro-2H-quinolin-1-yl]-N-methyl-6,7-dihydro-4H-pyrazolo[4,3-c]pyridine-5-carboxamide] | < 1 nM | ≤ 0.1 nM | > 10000 nM
13 | CNC(=O)N1CCc2c(c(N3CCCc4cc(-c5cnn(C)c5)c(C(F)F)cc43)nn2C2CCN(C(=O)COCCOC3CCN(c4ncc(C(=O)NC5C(C)(C)C(Oc6ccc(C#N)c(Cl)c6)C5(C)C)cn4)CC3)CC2)C1 (stereo not drawn) [Compound 98, 1-[1-[2-[2-[[1-[5-[[3-(3-chloro-4-cyano-phenoxy)-2,2,4,4-tetramethyl-cyclobutyl]carbamoyl]pyrimidin-2-yl]-4-piperidyl]oxy]ethoxy]acetyl]-4-piperidyl]-3-[7-(difluoromethyl)-6-(1-methylpyrazol-4-yl)-3,4-dihydro-2H-quinolin-1-yl]-N-methyl-6,7-dihydro-4H-pyrazolo[4,3-c]pyridine-5-carboxamide] | < 1 nM | ≤ 0.1 nM | > 10000 nM
